{
  "source": "paper PMC7689791",
  "about": "(Journal of Clinical Pharmacology, 2020)",
  "assay": "Observed incidence of treatment-emergent adverse events in clinical studies",
  "conditions": "studies 202, 303, 304; 5 to 15 mg",
  "data": [
    {"smiles": "Cc1ncc(OC[C@@]2(c3cccc(F)c3)C[C@H]2C(=O)Nc2ccc(F)cn2)c(C)n1", "note": "[Lemborexant]", "values": [
      {"measurement": "Flu/influenza frequency, active treatment", "result": 4.0, "unit": "%"}
    ]}
  ]
}
